This passage reports IC50 results from patent US20230031406A1, “COMPOUNDS AND COMPOSITIONS FOR TREATING CONDITIONS ASSOCIATED WITH NLRP ACTIVITY” (Novartis AG, priority 2018, published 2023).

This test concerns PMA-differentiated THP-1 cells. Kind of test: IL-1β production in PMA-differentiated THP-1 cells stimulated with gramicidin (hTHP-1 assay containing 2% fetal bovine serum; Procedures 1 and 2). Type of test: cell-based, human. As to conditions: 2% fetal bovine serum. In outline:
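Compound titrations in 0.37% final DMSO were added to THP-1 cells that had been plated after 16-18 h PMA treatment, 50,000 per well in 2% FBS. One hour later the cells received gramicidin (5 μM, 2 h) and were centrifuged. HTRF detected IL-1β in the collected supernatants.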

The mark [1] stands for this setting: Homo sapiens, THP-1, Table B4, class symbols, read-out: hTHP-1 IC50.
The mark [2] stands for this setting: Homo sapiens, THP-1, Table B1, numeric bounds, read-out: Average IC50 of compounds in hTHP-1 assay: hTHP-1 IC50.
Setting [3] is: Table B1, class symbols, read-out: Average IC50 of compounds in hTHP-1 assay: hTHP-1 IC50.
The mark [4] stands for this setting: Homo sapiens, THP-1, Table B2, numeric bounds, read-out: hTHP-1 IC50.
The mark [5] stands for this setting: Table B2, class symbols, read-out: hTHP-1 IC50.
Setting [6] is: Homo sapiens, THP-1, Table B2, class symbols, read-out: hTHP-1 IC50.
The mark [7] stands for this setting: Homo sapiens, THP-1, Table B1, class symbols, read-out: Average IC50 of compounds in hTHP-1 assay: hTHP-1 IC50.

Read-outs that look alike come from different tables or passages of the source. Bounds are passed on as bounds.

Consider `CC(C)n1cc(F)c(S(N)(=O)=NC(=O)Nc2c3c(nc4c2CC[C@H]4C)CCC3)n1` (stereo partly drawn) [Example 739, 4-Fluoro-1-isopropyl-N′-(((R)-3-methyl-1,2,3,5,6,7-hexahydrodicyclopenta[b,e]pyridin-8-yl)carbamoyl)-1H-pyrazole-3-sulfonimidamide], for which the IC50 under setting [1] lay within 0.008 to 0.04 µM.

As to `CC(C)n1ccc(S(N)(=O)=NC(=O)Nc2c3c(nc4c2CCC4)CCC3)n1` (single isomer, unassigned) [Compound 119b, (S) or (R)-N′-((1,2,3,5,6,7-hexahydrodicyclo-penta[b,e]pyridin-8-yl)carbamoyl)-1-isopropyl-1H-pyrazole-3-sulfonimidamide], the IC50 under setting [2] was more than 30 µM.

With `CC(C)c1ncc(F)c(C(C)C)c1NC(=O)N=S(N)(=O)c1ccc(CN(C)C)cc1` (single isomer, unassigned) [Compound 132b, (S) or (R)-4-((dimethyl-amino)methyl)-N′-((5-fluoro-2,4-diisopropylpyridin-3-yl)carbamoyl)benzene-sulfonimidamide], under setting [2], the IC50 was more than 30 µM.

As to `Cc1c(C2CC2)nc2c(c1NC(=O)N=S(N)(=O)c1cc(C(C)(C)O)cs1)CCC2` (single isomer, unassigned) [Compound 175b, (S) or (R)-N′-((2-cyclopropyl-3-methyl-6,7-dihydro-5H-cyclopenta[b]pyridin-4-yl)carbamoyl)-4-(2-hydroxy-propan-2-yl)thiophene-2-sulfonimidamide], under setting [3], the IC50 is 0.2 to 1 µM.

Consider `COCc1nc(C(C)(C)O)sc1S(N)(=O)=NC(=O)Nc1c2c(nc3c1CCC3)CCC2` (single isomer, unassigned) [Compound 689a, (S) or (R)-N′-((1,2,3,5,6,7-hexahydrodicyclopenta [b,e]pyridin-8-yl)carbamoyl)-2-(2-hydroxypropan-2-yl)-4-(methoxymethyl) thiazole-5-sulfonimidamide], for which the IC50 under setting [4] was more than 30 µM.

Turning to `CCc1nc2c(c(NC(=O)N=S(N)(=O)c3sc(C(C)(C)O)cc3F)c1C1CC1)CCC2` (single isomer, unassigned) [Compound 631a, (S) or (R)-N′-((3-cyclopropyl-2-ethyl-6,7-dihydro-5H-cyclopenta[b]pyridin-4-yl)carbamoyl)-3-fluoro-5-(2-hydroxypropan-2-yl)thiophene-2-sulfonimidamide], the IC50 under setting [5] lay in the range of 5 to 30 µM.

Take `CC(C)(O)c1nc(CO)c(S(N)(=O)=NC(=O)Nc2c3c(nc4c2CCC4(C)C)CCC3)s1` (single isomer, unassigned) [Compound 121b, (S) or (R)-N′-((3,3-dimethyl-1,2,3,5,6,7-hexahydro-dicyclopenta[b,e]pyridin-8-yl)carbamoyl)-4-(hydroxymethyl)-2-(2-hydroxypropan-2-yl)thiazole-5-sulfonimidamide]: the IC50 under setting [3] is 5 to 30 µM.

Take `CC1(C)Cc2nc3c(c(NC(=O)N=S(N)(=O)c4cnc(C(C)(C)O)s4)c2C1)CCC3` (single isomer, unassigned) [Compound 147a, (S) or (R)-N′-((2,2-dimethyl-1,2,3,5,6,7-hexahydrodicyclo-penta[b,e]pyridin-8-yl)carbamoyl)-2-(2-hydroxypropan-2-yl)thiazole-5-sulfonimidamide]: the IC50 under setting [2] was more than 30 µM.

`CC1(C)CCc2c1nc1c(c2NC(=O)N=S(N)(=O)c2ccn(-c3ccccc3)n2)CCC1` (stereo not shown) [Compound 659, N′-((3,3-dimethyl-1,2,3,5,6,7-hexahydrodicyclopenta[b,e]pyridin-8-yl)carbamoyl)-1-phenyl-1H-pyrazole-3-sulfonimidamide]: the IC50 under setting [6] is 1 to 5 µM.

`CC(C)(O)c1cnc(S(N)(=O)=NC(=O)Nc2c3c(nc4c2CCC4(C)C)CCC3)s1` (single isomer, unassigned) [Compound 686b, (R) or (S)-N′-((3,3-dimethyl-1,2,3,5,6,7-hexahydrodicyclopenta [b,e]pyridin-8-yl)carbamoyl)-5-(2-hydroxypropan-2-yl)thiazole-2-sulfonimidamide]: the IC50 under setting [5] fell in the range of 5 to 30 µM.

On to `C[C@@H]1CCc2c1nc1c(c2NC(=O)N=S(N)(=O)c2nn(-c3ccccc3)cc2F)CCC1` (stereo partly drawn) [Example 748, 4-Fluoro-N′-(((R)-3-methyl-1,2,3,5,6,7-hexahydrodicyclopenta [b, e]pyridin-8-yl)carbamoyl)-1-phenyl-1H-pyrazole-3-sulfonimidamide], for which, under setting [1], the IC50 lay within 0.2 to 1 µM.

As for `CCc1c(C(F)(F)F)nc2c(c1NC(=O)N=S(N)(=O)c1nn(CC)cc1F)CCC2` (single isomer, unassigned) [Example 771, (R) or (S)-1-ethyl-N′-((3-ethyl-2-(trifluoromethyl)-6,7-dihydro-5H-cyclopenta[b]pyridin-4-yl)carbamoyl)-4-fluoro-1H-pyrazole-3-sulfonimidamide], the IC50 (Table B4, class symbols, read-out: hTHP-1 IC50) was in the range of 0.2 to 1 µM.

On to `Cc1sc(S(N)(=O)=NC(=O)Nc2c3c(nc4c2CCC4(C)C)CCC3)cc1C(C)(C)O` (single isomer, unassigned) [Compound 169a, (S) or (R)-N′-((3,3-dimethyl-1,2,3,5,6,7-hexahydro-dicyclopenta[b,e]pyridin-8-yl)carbamoyl)-4-(2-hydroxypropan-2-yl)-5-methylthiophene-2-sulfonimidamide], for which the IC50 under setting [3] was in the range of 5 to 30 µM.

With `CCn1cc(Cl)c(S(N)(=O)=NC(=O)Nc2c(C)c(C(F)(F)F)nc3c2CCC3)n1` (stereo not shown) [Compound 729], the IC50 under setting [6] fell in the range of 0.2 to 1 µM.

Turning to `CCn1cc(Cl)c(S(N)(=O)=NC(=O)Nc2c(C)c(C(F)(F)F)nc3c2CCC3)n1` (single isomer, unassigned) [Compound 729a, (S) or (R)-4-Chloro-1-ethyl-N′-((3-methyl-2-(trifluoromethyl)-6,7-dihydro-5H-cyclopenta[b]pyridin-4-yl)carbamoyl)-1H-pyrazole-3-sulfonimidamide], under setting [5], the IC50 is 5 to 30 µM.

In the case of `Cc1c(C2CC2)nc(C2CC2)c(C)c1NC(=O)N=S(N)(=O)c1cc(C(C)(C)O)cs1` (single isomer, unassigned) [Compound 612a, (S) or (R)-N′-((2,6-dicyclopropyl-3,5-dimethylpyridin-4-yl)carbamoyl)-4-(2-hydroxypropan-2-yl)thiophene-2-sulfonimidamide], the IC50 under setting [4] was more than 30 µM.

Take `C[C@@H]1CCc2c1nc1c(c2NC(=O)N=S(N)(=O)c2nn(-c3ccccc3)cc2F)CCC1` (single isomer, unassigned) [Example 791, (R) or (S)-4-fluoro-N′-(((R)-3-methyl-1,2,3,5,6,7-hexahydrodicyclopenta[b,e]pyridin-8-yl)carbamoyl)-1-phenyl-1H-pyrazole-3-sulfonimidamide]: the IC50 under setting [1] lay in the range of 0.2 to 1 µM.

In the case of `Cc1nc(C)c(C)c(NC(=O)N=S(N)(=O)c2cnc(C(C)(C)O)s2)c1C` (stereo not shown) [Compound 133, 2-(2-hydroxypropan-2-yl)-N′-((2,3,5,6,-tetramethylpyridin-4-yl)carbamoyl)thiazole-5-sulfonimidamide], under setting [2], the IC50 was more than 14 µM.

Regarding `CC(C)(O)c1ncc(S(N)(=O)=NC(=O)Nc2c3c(nc4c2CCC4)CCCC3)s1` (single isomer, unassigned) [Compound 161b, (R) or (S)-N′-((2,3,5,6,7,8-hexahydro-1H-cyclopenta[b]quinolin-9-yl)carbamoyl)-2-(2-hydroxypropan-2-yl)thiazole-5-sulfonimidamide], under setting [3], the IC50 is 1 to 5 µM.

`CC(C)(O)c1nc(S(N)(=O)=NC(=O)Nc2c3c(nc4c2CCC4)CCC3)cs1` (stereo not shown) [Compound 154]: the IC50 under setting [7] was in the range of 0.2 to 1 µM.

For `C[C@@H]1CCc2c1nc1c(c2NC(=O)N=S(N)(=O)c2cc(F)c(C(C)(C)O)s2)CCC1` (single isomer, unassigned) [Compound 616b, (S) or (R)-4-Fluoro-5-(2-hydroxypropan-2-yl)-N′-(((R)-3-methyl-1,2,3,5,6,7-hexahydrodicyclopenta [b,e]pyridin-8-yl)carbamoyl) thiophene-2-sulfonimidamide], the IC50 under setting [5] was 5 to 30 µM.

As for `CC(C)(O)c1sc(S(N)(=O)=NC(=O)Nc2c3c(nc4c2CCC42CC2)CCC3)cc1F` (single isomer, unassigned) [Compound 614b, (S) or (R)-4-Fluoro-5-(2-hydroxypropan-2-yl)-N′-((1′,5′,6′,7′-tetrahydro-2′H-spiro[cyclopropane-1,3′-dicyclopenta[b,e]pyridin]-8′-yl)carbamoyl) thiophene-2-sulfonimidamide], the IC50 under setting [5] lay within 1 to 5 µM.

For `Cn1nc(S(N)(=O)=NC(=O)Nc2c3c(nc4c2CCC4)CCC3)cc1C(C)(C)O` (stereo not shown) [Compound 158, N-((1,2,3,5,6,7-hexahydrodicyclopenta[b,e]pyridin-8-yl)carbamoyl)-5-(2-hydroxypropan-2-yl)-1-methyl-1H-pyrazole-3-sulfonimidamide], the IC50 under setting [7] lay in the range of 1 to 5 µM.

As to `CC(C)(O)c1cc(F)c(S(N)(=O)=NC(=O)Nc2c3c(nc(C4CC4)c2C2CC2)CCC3)s1` (single isomer, unassigned) [Example 698, (S) or (R)-N′-((2,3-dicyclopropyl-6,7-dihydro-5H-cyclopenta[b]pyridin-4-yl)carbamoyl)-3-fluoro-5-(2-hydroxypropan-2-yl) thiophene-2-sulfonimidamide], the IC50 (Table B3, hTHP-1 assay, class symbols, read-out: IC50) is 1 to 5 µM.

Consider `CC(C)c1ncc(F)c(C(C)C)c1NC(=O)N=S(N)(=O)c1cnc(C(C)(C)O)s1` (single isomer, unassigned) [Compound 164a, (R) or (S)-N′-((5-fluoro-2,4-diisopropylpyridin-3-yl)carbamoyl)-2-(2-hydroxypropan-2-yl)thiazole-5-sulfonimidamide], for which the IC50 under setting [3] fell in the range of 1 to 5 µM.

The term IC50 denotes the point on the concentration scale where inhibition reaches its midpoint.
